# Values of other authors, collected in paper PMC3079564 (Chemical biology & drug design, 2011).
# Experiments:
# [1] = system: gp120 from the YU2 strain
# [2] = system: recombinant HIV-1 carrying HIV-1YU2 envelope glycoproteins on Cf2Th-CCR5 cells lacking CD4
smiles,measurement,setting,value
CC1(C)CC(NC(=O)C(=O)Nc2ccc(Cl)cc2)CC(C)(C)N1 [NBD-556],-TΔS of binding to gp120,[1]; 25 °C,17.1 kcal/mol
same,ΔH of binding to gp120,[1]; 25 °C,-24.5 kcal/mol
same,measured heat capacity change on binding to gp120,[1]; NBD-556,-1.0 kcal/(K × mol)
same,enhancement of viral infectivity in CD4 negative cells,[2],three orders of magnitude
